Laboratory results taken from patent US10857167B2, “Use of oligosaccharide compositions to enhance weight gain” (Children's Hospital Medical Center, priority 2015, dated 2020).
“Also recorded” adds a separate entry of the source.

What was measured:
[1] = tested on: small bowel luminal microbiome; assay: 16S sequencing of small bowel luminal contents after ICR; format: in vivo, mouse
Description: Luminal small bowel contents were expressed into AllProtect Tissue Reagent (Qiagen Inc, CA). Bacterial DNA was extracted using the AllPrep DNA/RNA Mini Kit (Qiagen Inc, CA), according to kit instructions and prior to sequencing (described below). Small bowel tissue samples for RNA were placed into RNA Later (Life Technologies, NY). RNA extraction was accomplished following Qiagen RNeasy Plus Kit instruction (Qiagen Inc, CA). All nucleic acid samples were then stored at −80 Celsius until sequenced (described below).
Following bacterial community DNA extraction from harvested small bowel contents obtained from operated mice taken to 8 weeks, samples were quantified using the Qubit ssDNA kit (Life Technologies, NY). The V3 and V4 regions of the 16S gene were then amplified and tagged with region-specific primers (Illumina flowcell compatible sequences), permitting sequencing of up to 576 individual bacterial communities on the same flowcell. Fadrosh et al. (2014) Microbiome 2:6. Two positive and 2 negative controls were included in each run. FastStart Taq kit (Roche Applied Science, Indianapolis, Ind.) was used for thermocycling then equal volumes of each amplicon were pooled and cleaned using the QIAquick PCR cleanup column (Qiagen, MD). The size of library pools was then verified using the Fragment Analyzer CE (AATI, Ames Iowa) and quantified using the Qubit high sensitivity dsDNA kit. Dilution to 1 nM and addition of PhiX V3 library (Illumina, Calif.) was followed by denaturation and further dilution to 12 pM in Illumina's HT1 buffer. The pool was then loaded to the Illumina MiSeq V2 500 cycle kit cassette, a sample sheet prepared, and the MiSeq run was initiated for FASTQ generation.
The 16S rRNA amplicon sequences were assembled and processed using an integrated, high-throughput analysis pipeline established at Cincinnati Children's Hospital Medical Center. Paired-end reads were assembled and quality filtered using Pandaseq v2.8. Masella et al. (2012) BMC bioinformatics 13: 31. Reads with ambiguous base calls, minimum overlap of 10 nt, or <425 nt were culled. Demultiplexing and removal of barcodes and primers was performed using the FastX-toolkit. Pearson et al. (1997) Genomics 46: 24-36. De novo clustering at 97% sequence similarity and chimera filtering was performed using UPARSE v7. Edgar (2013) Nature methods 10: 996-998. UCLUST, as implemented in QIIME v1.8, was used for taxonomic classification to the Greengenes v13.8 database. Caporaso et al. (2010) Nature methods 7: 335-336; Edgar (2010) Bioinformatics 26: 2460-2461; and McDonald et al. (2012) The ISME journal 6: 610-618. PyNast and FastTree were used to align sequence reads and construct a phylogenetic tree. Caporaso et al. (2010) Bioinformatics 26: 266-267; and Price et al. (2010) PloS one 5: e9490; Price M N et al. (2009) Molecular biology and evolution 26: 1641-1650. Additional integrated analyses included QIIME scripts for the generation of alpha and beta diversity metrics, corresponding visualizations, and summaries and plots of taxonomic composition. Alpha and beta diversity metrics were computed after subsampling to the lowest observed read depth (n=7,793 reads).
In order to estimate the treatment effect on alpha diversity metrics adjusted for housing cohort, a generalized ANCOVA model was used. The Chaol, Shannon, Simpson and Faith's Phylogenetic Diversity indices were examined. Differences between groups in community composition post-treatment, as measured by the weighted and unweighted UniFrac metrics (Lozupone and Knight (2005) Applied and environmental microbiology 71: 8228-8235) were tested by permutational ANOVA as implemented by the ADONIS function in the R package vegan. Oksanen et al. (2015) Vegan: Community Ecology Package. 2015; and Team (2015) R: A language and environment for statistical computing R Foundation for Statistical Computing [http://www.R-project.org/. 2015]. […]

[2] = tested on: small bowel of mice after ileocecal resection (ICR); assay: Histologic markers of adaptation (villus height, crypt depth, bowel circumference, intestinal length) after ICR; format: in vivo, mouse; conditions: for crypt depth, median / intestinal length (corrected), median / small bowel circumference, median / villus height, median: 2′-FL supplemented ICR subgroup, interquartile range in brackets
Procedure: At the time of resection, tissue was obtained to prepare for histologic examination (FIG. 12). No differences in measurements of villus height, crypt depth, and bowel circumference were found at the time of resection. […] Crypts of both post-operative control and 2′ FL supplemented groups were deeper than those of pre-operative tissue. […] Only weights were obtained from non-operated control animals. Resected intestine from operated animals was measured for length then the site of small bowel transection was processed for small bowel contents, histology, and RNA. At the time of experimental completion, small bowel immediately proximal to the site of anastomosis was also harvested for small bowel contents, histology, and RNA from the operated group. Small bowel tissue samples for histology were cut in the longitudinal and transverse section, fixed with 4% paraformaldehyde, mounted in paraffin, and stained with hemotoxylin and eosin. Villous height, crypt depth, and bowel circumference were measured in a blinded manor. At least 10 well-oriented villus and crypt domains were assessed for each sample and two samples were averaged per mouse. The serosal circumference was measured twice per sample with two samples per mouse. The average value per mouse was determined. Measurements were performed using the Nikon Ti-Eclipse with NIS Element Advanced Research version 4.20 (Nikon Inc, NY). […] Intestinal length was compared across groups using the Wilcoxon rank-sum test as values were not normally distributed. Histologic count data was averaged per mouse across two samples and compared by the Wilcoxon rank-sum test. Weight data was analyzed using Stata version 13.0 (StataCorp LP, TX). Remaining morphometric and histologic data were analyzed using GraphPad Prism version 5 (GraphPad Software Inc, CA).

[3] = luminal contents, postop vs preop

C[C@@H]1O[C@@H](O[C@H]2[C@H](O[C@H]3[C@H](O)[C@@H](O)C(O)O[C@@H]3CO)O[C@H](CO)[C@H](O)[C@@H]2O)[C@@H](O)[C@H](O)[C@@H]1O (stereo partly drawn) [2′-FL, 2′-fucosyllactose]
relative abundance of Enterobacteriaceae after resection compared to control [1, 3]: greater decline
relative abundance of Lachnospiraceae after resection compared to control [1, 3]: relatively larger bloom
weighted or unweighted UniFrac metrics compared to control ([1]; post-treatment, 8 weeks after ICR): Nor were differences in the weighted or unweighted UniFrac metrics detected
other alpha-diversity metrics examined (Chao1, Simpson, Faith's Phylogenetic Diversity) compared to control ([1]; small bowel luminal contents 8 weeks after ICR): No differences were detected
microbial alpha diversity by Shannon diversity index compared to control ([1]; small bowel luminal contents 56 days after ICR): significant increase; also recorded: increased; also recorded: greater alpha diversity
enrichment of sequence reads of genus Parabacteroides (OTU_146) compared to controls ([1]; small bowel luminal contents 56 days after ICR, adjusted for housing cohort): 4.1 log 2-fold
increase in microbes of the genus Parabacteroides compared to controls ([1]; supplemented, resected animals): > 4 fold
crypt depth, median ([2]; postoperative day 21): 89 μm
intestinal length (corrected), median ([2]; postoperative day 21): 35.5 cm
small bowel circumference, median ([2]; postoperative day 21): 7,133 μm
villus height, median ([2]; postoperative day 21): 346 μm
crypt depth, median ([2]; postoperative day 56): 106 μm
intestinal length (corrected), median ([2]; postoperative day 56): 38.5 cm
small bowel circumference, median ([2]; postoperative day 56): 9,671 μm
villus height, median ([2]; postoperative day 56): 405 μm
histologic markers of adaptation (crypt depth, villus height, bowel circumference) compared to control ([2]; point of weight divergence, 21 days post-ICR): did not alter
crypt depth compared to control ICR ([2]; postoperative day 21): no difference
villus height compared to control ICR ([2]; postoperative day 21): no difference
intestinal length compared to control ICR ([2]; postoperative day 21 and day 56): no difference
villus height compared to control ICR ([2]; postoperative day 56): appeared longer; also recorded: trended toward a greater height
crypt depth compared to control ICR ([2]; postoperative day 56 (8 weeks)): increased; also recorded: significantly deeper
crypt depth compared to control ICR ([2]; postoperative day 56 (8 weeks), listed as 2′ Fl): significantly greater
crypt depth compared to control ICR ([2]; postoperative day 56 (8 weeks), listed as 2′FL): significantly greater
bowel circumference compared to control ICR ([2]; postoperative day 56 (Example 2)): no significant difference
villus height compared to control ICR ([2]; postoperative day 56, listed as 2′-Fl): appeared longer
duration of the acute histologic response to ICR compared to control ([2]; postoperative day 56 plotted alongside day 21): sustains the acute histologic response over a longer time period; also recorded: sustained the acute increases
small bowel circumference compared to control ICR ([2]; postoperative days 21 or 56): no statistical difference
